The record followed here is patent publication US9802942B2, “Substituted 4-methyl-pyrrolo[1,2-A]pyrimidine-8-carboxamide compounds and uses thereof for modulating glucocerebrosidase activity” (Northwestern University, priority 2015, dated 2017).

The target in this assay is T1, glucocerebrosidase (GCase), recombinant wt. enzyme velaglucerase alfa (Homo sapiens, UniProt P04062).
T1 construct: purchased Shire Human Genetic Therapies, Inc. Vpriv
T1 sequence (P04062 40-536): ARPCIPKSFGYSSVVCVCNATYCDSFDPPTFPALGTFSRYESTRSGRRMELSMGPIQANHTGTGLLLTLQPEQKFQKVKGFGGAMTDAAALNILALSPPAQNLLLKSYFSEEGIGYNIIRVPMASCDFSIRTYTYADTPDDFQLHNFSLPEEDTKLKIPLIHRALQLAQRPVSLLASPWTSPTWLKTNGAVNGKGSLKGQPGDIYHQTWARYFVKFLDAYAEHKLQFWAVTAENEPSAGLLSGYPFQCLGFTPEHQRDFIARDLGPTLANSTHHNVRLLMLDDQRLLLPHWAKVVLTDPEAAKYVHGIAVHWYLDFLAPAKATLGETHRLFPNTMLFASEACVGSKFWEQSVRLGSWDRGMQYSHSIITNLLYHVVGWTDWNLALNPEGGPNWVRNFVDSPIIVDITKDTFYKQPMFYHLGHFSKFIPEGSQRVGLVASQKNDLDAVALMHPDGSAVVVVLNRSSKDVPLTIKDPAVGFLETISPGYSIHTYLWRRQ
Put plainly: Glucocerebrosidase activity assay with blue substrate (4MU-Glc). It is filed as biochemical. The note with it: Table 1; for AC50: titration 24 nM to 50 μM, substrate not given, read-out: Ac50. The protocol: The compounds in DMSO solution 0.5 μL/well were transferred to a black 96-well plate (the final titration was 24 nM to 50 μM, 12 concentrations, 2 times dilution). 33.5 μL enzyme solution (7.5 nM final concentration) was transferred to the wells. After 5 min of incubation at room temperature, the enzyme reaction was initiated by the addition of 33 μL/well blue substrate or 66.5 μL/well red substrate. Final concentrations of the blue substrate (4MU-Glc) and red substrate (Res-Glc) were 1.5 mM and 30 μM, respectively. The red substrate reaction was measured in the Biotek Synergy H1 multi-mode plate reader with Ex=573 nm and Em=610 nm at 37° C. every 20 sec for 30 min. The blue substrate reaction was terminated by the addition of 33 μL/well stop solution (1 M NaOH and 1 M glycine mixture, pH 10) after 30 min of incubation at 37° C. The fluorescence was then measured in the plate reader at Ex=365 nm and Em=440 nm.
The recombinant wt. enzyme velaglucerase alfa (Vpriv®, Shire Human Genetic Therapies, Inc.) was obtained from residual solution after clinical infusions. The GCase activity assay buffer was composed of 50 mM citric acid, 176 mM K2HPO4, and 0.01% Tween-20 at pH 5.9. A solution of 1 M sodium hydroxide and 1 M glycine was used as the stop solution for the 4MU-β-glc substrate assay.
The compounds in DMSO solution 0.5 μL/well was transferred to a black 96-well plate (the final titration was 24 nM to 50 μM, 12 concentrations). 33.5 μL enzyme solution (7.5 nM final concentration) was transferred to the wells. After 5 min of incubation at room temperature, the enzyme reaction was initiated by the addition of 33 μL/well 4MU-Glc substrate or 66.5 μL/well red substrate. Final concentrations of the 4MU-Glc substrate and Res-Glc substrate were 1.5 mM and 30 μM, respectively. The red substrate reaction was measured in the Biotek Synergy H1 multi-mode plate reader with Ex=573 nm and Em=610 nm at 37° C. in every 20 seconds for 30 min. The 4MU-Glc substrate reaction was terminated by the addition of 33 μL/well stop solution (1 M NaOH and 1 M glycine mixture, pH 10) after 30 min of incubation at 37° C. The fluorescence was then measured in the plate reader with Ex=365 nm and Em=440 nm.

Structures are written as SMILES.

`C#Cc1ccc(NC(=O)c2ccn3c(C)cc(C)nc23)cc1` [compound 1]: the AC50 stood at 0.14 µM.
Still for that read-out and setting: next, `Cc1cc(C)n2ccc(C(=O)Nc3ccc(C(F)(F)F)cc3)c2n1` [compound 5]: 0.8 µM; `Cc1cc(C)n2ccc(C(=O)Nc3ccc(CN4CCOCC4)cc3)c2n1` [compound 7]: 112 µM.
Still for that read-out and setting: next, `Cc1cc(C)n2ccc(C(=O)Nc3ccc(CN4CCN(C)CC4)cc3)c2n1` [compound 8]: 39.8 µM; `Cc1cc(C)n2ccc(C(=O)Nc3ccc(CN4CCCCC4)cc3)c2n1` [compound 9]: 70.8 µM; `Cc1cc(C)n2ccc(C(=O)Nc3ccc(N4CCN(C)CC4)cc3)c2n1` [compound 10]: 7.08 µM.
The same measure, in the same setting: next, `CCN1CCN(c2ccc(NC(=O)c3ccn4c(C)cc(C)nc34)cc2)CC1` [compound 11]: 31.6 µM; `Cc1cc(C)n2ccc(C(=O)Nc3ccc(N4CCN(Cc5ccccc5)CC4)cc3)c2n1` [compound 12]: 5.01 µM; `Cc1cc(C)n2ccc(C(=O)Nc3ccc(Cc4ccccc4)cc3)c2n1` [compound 13]: 0.79 µM.
Take `Cc1cc(C)n2ccc(C(=O)Nc3ccc(CCN4CCOCC4)cc3)c2n1` [compound 14]: the AC50 came to 31.6 µM.
Still for that read-out and setting: the result for `Cc1cc(C)n2ccc(C(=O)Nc3ccc(CCN4CCCCC4)cc3)c2n1` [compound 15] reads 39.8 µM.
Still for that read-out and setting: next, `Cc1cc(C)n2ccc(C(=O)Nc3ccc(CCN4CCN(C)CC4)cc3)c2n1` [compound 16]: 44.7 µM; `Cc1cc(C)n2ccc(C(=O)Nc3ccc(N(C)C)cc3)c2n1` [compound 17]: 3.55 µM; `Cc1cc(C)n2ccc(C(=O)Nc3ccc(N4CCCCC4)cc3)c2n1` [compound 18]: 1.58 µM.
For the compound `Cc1cc(C)n2ccc(C(=O)Nc3ccc(N4CCOCC4)cc3)c2n1` [compound 19], the AC50 amounted to 1.41 µM.
Same read-out and setting: next, `Cc1cc(C)n2ccc(C(=O)Nc3ccc(CN(C)C)cc3)c2n1` [compound 20]: 14.1 µM; `Cc1cc(C)n2ccc(C(=O)Nc3nccc4ccccc34)c2n1` [compound 21]: 39.8 µM.
Consider `Cc1cc(C)n2ccc(C(=O)Nc3ccncc3)c2n1` [compound 22], for which the AC50 was found to be 25.1 µM.
Still for that read-out and setting: the result for `Cc1cc(C)n2ccc(C(=O)Nc3ccccn3)c2n1` [compound 23] reads 22.4 µM; that for `Cc1cc(C)n2ccc(C(=O)Nc3ccc(-c4ccccc4)cc3)c2n1` [compound 24], 1.41 µM.
As to `Cc1cc(C)n2ccc(C(=O)Nc3ccc(N4CCCC4)cc3)c2n1` [compound 25], the AC50 was determined as 0.51 µM.
Same read-out and setting: the result for `Cc1cc(C)n2ccc(C(=O)Nc3nc4ccccc4[nH]3)c2n1` [compound 26] reads 1.26 µM; that for `Cc1cc(C)n2ccc(C(=O)NC3CCCCC3)c2n1` [compound 27], 15.8 µM.
As to `Cc1cc(C)n2ccc(C(=O)NC3CCc4ccccc43)c2n1` (stereo not shown) [compound 28], the AC50 is 3.98 µM.
Take `Cc1cc(C)n2ccc(C(=O)NC3Cc4ccccc4C3)c2n1` [compound 29]: the AC50 was 2.51 µM.
In the case of `Cc1cc(C)n2ccc(C(=O)Nc3ccc(CCO)cc3)c2n1` [compound 30], the AC50 amounted to 2.82 µM.
Same read-out and setting: the result for `Cc1cc(C)n2ccc(C(=O)Nc3nc4ccccc4s3)c2n1` [compound 31] reads 0.4 µM.
Still for that read-out and setting: the result for `Cc1cc(C)n2ccc(C(=O)NC3CCN(Cc4ccccc4)CC3)c2n1` [compound 32] reads 50 µM; that for `Cc1cc(C)n2ccc(C(=O)NC3CCN(C(C)C)CC3)c2n1` [compound 34], 30 µM.
Still for that read-out and setting: next, `Cc1cc(C)n2ccc(C(=O)NC3CCN(c4ccccc4)CC3)c2n1` [compound 35]: 22.4 µM; `Cc1cc(C)n2ccc(C(=O)Nc3ccc(-n4ccnc4)cc3)c2n1` [compound 36]: 107 µM; `Cc1cc(C)n2ccc(C(=O)NC3CCC(N(C)C)CC3)c2n1` (stereo not shown) [compound 37]: 40 µM.
In the case of `Cc1cc(C)n2ccc(C(=O)Nc3ccc(C#Cc4ccccc4)cc3)c2n1` [compound 38], the AC50 was determined as 0.79 µM.
On the same count and under the same terms, next, `Cc1cc(C)n2ccc(C(=O)Nc3nc4c(s3)CN(C)CC4)c2n1` [compound 39]: 39.8 µM.
On the same count and under the same terms, the result for `Cc1cc(C)n2ccc(C(=O)Nc3nc4cc(Cl)ccc4s3)c2n1` [compound 41] reads 39.9 µM; that for `Cc1cc(C)n2ccc(C(=O)Nc3nc4cc(F)ccc4s3)c2n1` [compound 42], 50.2 µM.
Still for that read-out and setting: next, `Cc1cc(C)n2ccc(C(=O)Nc3nc4c(C)cccc4s3)c2n1` [compound 43]: 0.2 µM.
`CCc1nnc(NC(=O)c2ccn3c(C)cc(C)nc23)s1` [compound 44]: the AC50 was 22.4 µM.
On the same count and under the same terms, the result for `Cc1cc(C)n2ccc(C(=O)Nc3ncc4ccccc4n3)c2n1` [compound 45] reads 35.5 µM; that for `Cc1cc(C)n2ccc(C(=O)Nc3cnn4c(C)cc(C)nc34)c2n1` [compound 46], 0.45 µM.
As to `COc1ccc2nc(NC(=O)c3ccn4c(C)cc(C)nc34)sc2c1` [compound 47], the “Activator / Inhibitor (word in Ac50 cell)” value (“Activator / Inhibitor” below) is reported as “Inhibitor”.
`Cc1ccc2nc(NC(=O)c3ccn4c(C)cc(C)nc34)sc2c1` [compound 48]: the AC50 is 0.2 µM.
For the compound `CCCn1cnc(NC(=O)c2ccn3c(C)cc(C)nc23)n1` [compound 49], the AC50 is 39.8 µM.
Still for that read-out and setting: the result for `Cc1cc(C)n2ccc(C(=O)Nc3ccc(N4CCC(N(C)C)CC4)cc3)c2n1` [compound 50] reads 10 µM; that for `Cc1cc(C)n2ccc(C(=O)NCc3cccs3)c2n1` [compound 51], 15.8 µM.
Still for that read-out and setting: the result for `Cc1cc(C)n2ccc(C(=O)Nc3ccc(N=[N+]=[N-])cc3)c2n1` [compound 52] reads 0.2 µM; that for `Cc1cc(C)n2ccc(C(=O)Nc3ccc(C(=O)c4ccccc4)cc3)c2n1` [compound 53], 0.14 µM.
On the same count and under the same terms, next, `Cc1cc(C)n2ccc(C(=O)Nc3ccc(Oc4ccccc4)cc3)c2n1` [compound 54]: 0.56 µM.
As to `Cc1cc(C)n2ccc(C(=O)Nc3ccc(OCCC(=O)O)cc3)c2n1` [compound 56], the AC50 stood at 15.8 µM.
Take `Cc1cc(C)n2ccc(C(=O)Nc3ccc(-c4cn(CCCCC(=O)O)nn4)cc3)c2n1` [compound 57]: the “Activator / Inhibitor” value is “Activator” and the AC50 worked out at 7.08 µM.
The corresponding values for `Cc1cc(C)n2ccc(C(=O)Nc3ccc(-c4cn(CCCCCCC(=O)O)nn4)cc3)c2n1` [compound 58] are “Activator” and 1.78 µM.
`Cc1cc(C)n2ccc(C(=O)Nc3ccc(-c4cn(CCCCCCCCC(=O)O)nn4)cc3)c2n1` [compound 59]: the “Activator / Inhibitor” value was “Activator” and the AC50 stood at 1.78 µM.
The matching figures for `Cc1cc(C)n2ccc(C(=O)Nc3ccc(-c4cn(CCCCC(=O)ON5C(=O)CCC5=O)nn4)cc3)c2n1` [compound 60]: “Activator” and 0.63 µM.
On to `Cc1cc(C)n2ccc(C(=O)Nc3ccc(-c4cn(CCCCCCC(=O)ON5C(=O)CCC5=O)nn4)cc3)c2n1` [compound 61], for which the AC50 worked out at 0.4 µM.
As for `Cc1cc(C)n2ccc(C(=O)Nc3ccc(-c4cn(CCCCCCCCC(=O)ON5C(=O)CCC5=O)nn4)cc3)c2n1` [compound 62], the “Activator / Inhibitor” value was “Activator” and the AC50 was 0.45 µM.
Take `Cc1cc(C)n2ccc(C(=O)Nc3ccc(-c4cn(CCN(C)C)nn4)cc3)c2n1` [compound 63]: the AC50 worked out at 39.8 µM.
The same measure, in the same setting: the result for `Cc1cc(C)n2ccc(C(=O)Nc3ccc(-c4cn(CCCN)nn4)cc3)c2n1` [compound 64] reads 7.07 µM.
The same measure, in the same setting: next, `Cc1cc(C)n2ccc(C(=O)Nc3ccc(-c4cn(CCOCCN)nn4)cc3)c2n1` [compound 65]: 7.08 µM; `Cc1cc(C)n2ccc(C(=O)Nc3ccc(-c4cn(CCOCCOCCOCCN)nn4)cc3)c2n1` [compound 66]: 7.94 µM.
